In paper PMC11981937 (Nature, 2025):
Where “and” joins values, the source holds several entries; their conditions need not be identical. Identical values can stand only once. Entries after “also recorded” stand apart in the source; their conditions may differ. Like-named read-outs stand apart in the source and are kept apart here.

Columns and labels:
SARS-CoV-2 B1 = type: in vivo, Syrian golden hamster; details: pre-exposure
[1] = type: in vivo, Syrian golden hamster; details: pre-exposure; for % body weight change compared to day 0, Avg: day 4 vs day 0, group average; for % body weight change compared to day 0: day 4 vs day 0, individual animals
SARS-CoV-2 = type: in vivo, Syrian golden hamster; details: for Infectious virus in the lung (TCID50), average Log 10 / Infectious virus in the lung (TCID50), median Log 10 / Viral load (viral RNA) in the lung, average Log 10 / Viral load (viral RNA) in the lung, median Log 10 / Infectious virus in the lung (TCID50), Copy number, individual animal / Infectious virus in the lung (TCID50), Log 10, individual animal / Viral load (viral RNA) in the lung, Copy number, individual animal / Viral load (viral RNA) in the lung, Log 10, individual animal: 75 mg/kg BID; for Infectious virus in the lung (TCID50), average Log 10 / Infectious virus in the lung (TCID50), median Log 10 / Viral load (viral RNA) in the lung, average Log 10 / Viral load (viral RNA) in the lung, median Log 10: n=5; for Infectious virus in the lung (TCID50), Copy number, individual animal / Infectious virus in the lung (TCID50), Log 10, individual animal / Viral load (viral RNA) in the lung, Copy number, individual animal / Viral load (viral RNA) in the lung, Log 10, individual animal: listed as 87009676-AAA
[2] = Post-exposure Syrian golden hamster model, body weight; details: in vivo, 75 mg/kg
[3] = system: SARS-CoV-2 (USA-WA1/2020); set-up: species or system Syrian golden hamster; details: hamster, in vivo
[4] = female, Syrian golden, hamster, in vivo, po
in vivo = details: cynomolgus monkey
in vitro [5] = details: rhesus monkey
in vitro [6] = details: African green monkey
[7] = 75 mg/kg BID, listed as 87009676-AAA, 75 mg/kg

SMILES: C[C@H]1Cn2ncc(C(=O)Nc3cccc(C#N)c3)c2C(=O)N1c1ccc(C(F)(F)c2ccccc2)cc1 [JNJ-9676, (S)-N-(3-cyanophenyl)-5-(4-(difluoro(phenyl)methyl)phenyl)-6-methyl-4-oxo-4,5,6,7-tetrahydropyrazolo[1,5-a]pyrazine-3-carboxamide]
- Infectious virus in the lung (TCID50/mg), Log 10, individual animal (SARS-CoV-2 B1; [7]): -2.00 Log 10 and 3.24 Log 10 and 3.78 Log 10 and 2.38 Log 10
- Infectious virus in the lung, individual animal (SARS-CoV-2 B1; [7]): 0.01 TCID50/mg and 1756.82 TCID50/mg and 5984.59 TCID50/mg and 240.02 TCID50/mg
- Viral load (viral RNA) in the lung, Copy number, individual animal (SARS-CoV-2 B1; [7]): 4.93E+02 and 1.36E+03 and 1.66E+06 and 2.19E+08 and 2.75E+02
- Viral load (viral RNA) in the lung, Log 10, individual animal (SARS-CoV-2 B1; [7]): 2.69 Log 10 and 3.13 Log 10 and 6.22 Log 10 and 8.34 Log 10 and 2.44 Log 10
- Infectious virus in the lung, reduction relative to vehicle (SARS-CoV-2 B1; 8.33 mpk BID, 8.33 mg/kg): 0.50 (p>0.05) log10 TCID50/mg lung and 0.50 (p>0.05) log10 TCID50/mg lung
- Viral load in the lung, reduction relative to vehicle (SARS-CoV-2 B1; 8.33 mpk BID, 8.33 mg/kg): 2.01 (p>0.05) log10 copies/mg lung and 2.01 (p>0.05) log10 copies/mg lung
- Infectious virus in the lung, reduction relative to vehicle (SARS-CoV-2 B1; 25 mpk BID, 25 mg/kg): 4.41 (p=0.02) log10 TCID50/mg lung and 4.41 (p=0.02) log10 TCID50/mg lung
- Viral load in the lung, reduction relative to vehicle (SARS-CoV-2 B1; 25 mpk BID, 25 mg/kg): 3.51 (p=0.0003 log10 copies/mg lung and 3.51 (p=0.0003) log10 copies/mg lung
- Infectious virus in the lung, reduction relative to vehicle (SARS-CoV-2 B1; 75 mpk BID, 75 mg/kg): 4.14 (p=0.03) log10 TCID50/mg lung and 4.14 (p=0.03) log10 TCID50/mg lung
- Viral load in the lung, reduction relative to vehicle (SARS-CoV-2 B1; 75 mpk BID, 75 mg/kg): 3.01 (p=0.0019) log10 copies/mg lung and 3.01 (p=0.0019) log10 copies/mg lung
- % body weight change compared to day 0, Avg ([1]; JNJ-9676 8.33 mpk BID): 1.86%
- % body weight change compared to day 0 ([1]; JNJ-9676 8.33 mpk BID, 8.33 mg/kg): 2.5% and 0.6% and 1.8% and 3% and 1.4%
- % body weight change compared to day 0, Avg ([1]; JNJ-9676 25 mpk BID): 5.08%
- % body weight change compared to day 0 ([1]; JNJ-9676 25 mpk BID, 25 mg/kg): 3.8% and 4.1% and 7.5% and 7.1% and 2.9%
- % body weight change compared to day 0, Avg ([1]; JNJ-9676 75 mpk BID): 2.14%
- % body weight change compared to day 0 ([1]; JNJ-9676 75 mpk BID, 75 mg/kg): -0.3% and 0.3% and 3.9% and 4.1% and 2.7%
- Infectious virus in the lung (TCID50), average Log 10 (SARS-CoV-2; 10 h post exposure): 1.99 Log 10
- Infectious virus in the lung (TCID50), median Log 10 (SARS-CoV-2; 10 h post exposure): 1.84 Log 10
- Viral load (viral RNA) in the lung, average Log 10 (SARS-CoV-2; 10 h post exposure): 6.33 Log 10
- Viral load (viral RNA) in the lung, median Log 10 (SARS-CoV-2; 10 h post exposure): 6.02 Log 10
- Infectious virus in the lung (TCID50), Copy number, individual animal (SARS-CoV-2; 10 h post exposure): 3.34E+02 and 6.93E+01 and 7.21E+00 and 6.50E+01 and 8.01E+02
- Infectious virus in the lung (TCID50), Log 10, individual animal (SARS-CoV-2; 10 h post exposure): 2.52 Log 10 and 1.84 Log 10 and 0.86 Log 10 and 1.81 Log 10 and 2.90 Log 10
- Viral load (viral RNA) in the lung, Copy number, individual animal (SARS-CoV-2; 10 h post exposure): 1.05E+06 and 4.63E+06 and 1.13E+05 and 8.39E+05 and 9.46E+07
- Viral load (viral RNA) in the lung, Log 10, individual animal (SARS-CoV-2; 10 h post exposure): 6.02 Log 10 and 6.67 Log 10 and 5.05 Log 10 and 5.92 Log 10 and 7.98 Log 10
- Infectious virus in the lung (TCID50), average Log 10 (SARS-CoV-2; 24 h post exposure): 1.64 Log 10
- Infectious virus in the lung (TCID50), median Log 10 (SARS-CoV-2; 24 h post exposure): 1.62 Log 10
- Viral load (viral RNA) in the lung, average Log 10 (SARS-CoV-2; 24 h post exposure): 6.39 Log 10
- Viral load (viral RNA) in the lung, median Log 10 (SARS-CoV-2; 24 h post exposure): 6.81 Log 10
- Infectious virus in the lung (TCID50), Copy number, individual animal (SARS-CoV-2; 24 h post exposure): 4.14E+01 and 7.14E+01 and 5.40E+01 and 2.87E+01 and 3.52E+01
- Infectious virus in the lung (TCID50), Log 10, individual animal (SARS-CoV-2; 24 h post exposure): 1.62 Log 10 and 1.85 Log 10 and 1.73 Log 10 and 1.46 Log 10 and 1.55 Log 10
- Viral load (viral RNA) in the lung, Copy number, individual animal (SARS-CoV-2; 24 h post exposure): 9.36E+06 and 2.59E+04 and 3.10E+05 and 6.49E+06 and 1.85E+08
- Viral load (viral RNA) in the lung, Log 10, individual animal (SARS-CoV-2; 24 h post exposure): 6.97 Log 10 and 4.41 Log 10 and 5.49 Log 10 and 6.81 Log 10 and 8.27 Log 10
- Infectious virus in the lung (TCID50), average Log 10 (SARS-CoV-2; 48 h post exposure): 1.82 Log 10
- Infectious virus in the lung (TCID50), median Log 10 (SARS-CoV-2; 48 h post exposure): 1.67 Log 10
- Viral load (viral RNA) in the lung, average Log 10 (SARS-CoV-2; 48 h post exposure): 7.33 Log 10
- Viral load (viral RNA) in the lung, median Log 10 (SARS-CoV-2; 48 h post exposure): 7.46 Log 10
- Infectious virus in the lung (TCID50), Copy number, individual animal (SARS-CoV-2; 48 h post exposure): 4.79E+01 and 7.10E+02 and 4.67E+01 and 2.27E+01 and 3.31E+01
- Infectious virus in the lung (TCID50), Log 10, individual animal (SARS-CoV-2; 48 h post exposure): 1.68 Log 10 and 2.85 Log 10 and 1.67 Log 10 and 1.36 Log 10 and 1.52 Log 10
- Viral load (viral RNA) in the lung, Copy number, individual animal (SARS-CoV-2; 48 h post exposure): 5.20E+06 and 3.10E+06 and 6.15E+07 and 1.50E+08 and 2.86E+07
- Viral load (viral RNA) in the lung, Log 10, individual animal (SARS-CoV-2; 48 h post exposure): 6.72 Log 10 and 6.49 Log 10 and 7.79 Log 10 and 8.18 Log 10 and 7.46 Log 10
- efficacy (in words) (SARS-CoV-2; hamster, in vivo): efficacious; also recorded: significant efficacy
- reduction of infectious virus in the lung (SARS-CoV-2; hamster, in vivo): 1.8 log10[TCID50 per mg lung]
- Infectious virus in the lung, reduction relative to vehicle (SARS-CoV-2; hamster, in vivo, 75 mg/kg): 1.65 (p=0.0003) log10 TCID50/mg lung and 2.00 (p<0.0001) log10 TCID50/mg lung and 1.83 (p<0.0001) log10 TCID50/mg lung and 1.65 (p=0.0003) log10 TCID50/mg lung and 2.00 (p<0.0001) log10 TCID50/mg lung and 1.83 (p<0.0001) log10 TCID50/mg lung
- Viral load in the lung, reduction relative to vehicle (SARS-CoV-2; hamster, in vivo, 75 mg/kg): 2.38 (p=0.0004) log10 copies/mg lung and 2.32 (p=0.0005) log10 copies/mg lung and 1.38 (p>0.05) log10 copies/mg lung and 2.38 (p=0.0004) log10 copies/mg lung and 2.32 (p=0.0005) log10 copies/mg lung and 1.38 (p>0.05) log10 copies/mg lung
- Average body weight change (%) on day 4 compared to day 0 [2]: -0.615% and -5.840% and -3.968%
- Infectious SARS-CoV2 virus in the lung, Avg [3]: 137996 PFU/g Lung and 75729 PFU/g Lung
- Infectious SARS-CoV2 virus in the lung, Log10, Avg [3]: 3.732 Log10 PFU/g Lung and 3.479 Log10 PFU/g Lung
- Concentration, individual animal ([4]; 5 mg/kg, 12 h): 153 ng/mL
- Concentration, individual animal ([4]; 50 mg/kg, 1 h): 908 ng/mL
- Vd (in vivo): 5.1 L/kg
- clearance (in vivo): 1.9 mL/min/kg
- half-life (in vivo): 35 h
- bioavailability (in vivo; po): > 30%
- CC50 at 6 days (in vitro [5]): > 20 µM
- CC50 (in vitro [6]): > 50 µM
